Assay results: patent publication US4962109A, “Insecticidally and acaricidally active pyrimidine esters and intermediates therefor” (Imperial Chemical Industries PLC, priority 1985, dated 1990)

Experiments:
Assay type in all cases: in vivo
[1] = tested on: Tetranychus urticae (spider mites - adult); experiment: Contact test on spider mites - adult (TUa), French bean leaf, mortality; settings: 72 h, 500 ppm, contact, 3 days, read-out: TUa grading of mortality
In short: (§1)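 Compound dissolved in acetone, diluted with water containing 0.01% by weight wetting agent to 500, 250 or 100 ppm. Pests held on host plant or foodstuff; pests and/or medium treated. Mortality scored one to three days later as grade A (80-100%), B (50-79%) or C (<50%) mortality or knockdown.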

[2] = tested on: Tetranychus urticae (spider mites - ova); experiment: Contact test on spider mites - ova (TUe), French bean leaf, mortality; settings: 144 h, 500 ppm, contact, 6 days, read-out: TUe grading of mortality
In short: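 Graded read-out: A 80-100%, B 50-79%, C below 50% mortality or knockdown, assessed usually 1-3 days post-treatment. Liquid preparations at 500, 250 or 100 ppm by weight, from acetone solution diluted in water with 0.01% wetting agent, applied to pests and/or their host plant or food medium.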

Myzus persicae (aphids) = experiment: Contact test on aphids (MP), Chinese Cabbage leaf, mortality; settings: 72 h, 500 ppm, contact, 3 days, read-out: MP grading of mortality
In short: as §1

[3] = tested on: Nephotettix cincticeps (green leaf hopper - nymphs); experiment: Contact test on green leaf hopper nymphs (NC), Rice plant, mortality; settings: 48 h, 500 ppm, contact, 2 days, read-out: NC grading of mortality
In short: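 Product dissolved in acetone, diluted in water with 0.01% wetting agent to 500, 250 or 100 ppm; nymphs and/or host rice plants treated. Mortality or knockdown assessed 1–3 days later, graded A (80-100%), B (50-79%), C (<50%).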

[4] = tested on: Musca domestica (houseflies - adults); experiment: Knockdown test on houseflies - adults (MD/KD), Cotton wool/sugar; settings: 500 ppm, 4 hours, read-out: MD/KD grading of knockdown
In short: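 Adult houseflies exposed to the compound at 500, 250 or 100 ppm in acetone/water with 0.01% wetting agent, on a cotton wool/sugar medium. Knockdown and mortality assessed, graded A (80-100%), B (50-79%) or C (<50%).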

[5] = tested on: Musca domestica (houseflies - adults); experiment: Contact test on houseflies - adults (MD), Cotton wool/sugar, mortality; settings: 72 h, 500 ppm, contact, 3 days, read-out: MD grading of mortality
In short: as §1

[6] = tested on: Blattella germanica (cockroach nymphs); experiment: Contact test on cockroach nymphs (BG/C), Plastic pot, mortality; settings: 48 h, 500 ppm, contact, 2 days, read-out: BG/C grading of mortality
In short: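 Cockroach nymphs and/or their medium were treated with aqueous preparations at 500, 250 or 100 ppm (acetone solution diluted in water with 0.01% Lissapol NX wetting agent). Mortality or knockdown was assessed typically 1–3 days later and graded A (80–100%), B (50–79%) or C (<50%).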

[7] = tested on: Heliothis virescens (tobacco budworm - larvae); experiment: Residual test on tobacco budworm larvae (HV), Cotton leaf, mortality; settings: 48 h, read-out: HV grading of mortality
In short: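 Product in acetone diluted with water containing 0.01% Lissapol NX, at 500, 250 or 100 ppm; pests and/or host medium (here cotton leaf) treated. Mortality scored one to three days later, graded A (80-100%), B (50-79%), C (<50%).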

[8] = tested on: Spodoptera exigua (lesser army worm - larvae); experiment: Residual test on lesser army worm larvae (SP), Cotton leaf, mortality; settings: 48 h, 500 ppm, residual, 2 days, read-out: SP grading of mortality
In short: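 Product dissolved in acetone and diluted in water with 0.01% wetting agent to 500, 250 or 100 ppm; larvae and/or cotton leaf host treated. Mortality or knockdown scored one to three days later and graded A (80-100%), B (50-79%) or C (<50%).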

[9] = tested on: Diabrotica balteata (rootworm larvae); experiment: Residual test on rootworm larvae (DB), Filter paper/maize seed, mortality; settings: 48 h, 500 ppm, residual, 2 days, read-out: DB grading of mortality
In short: as §1

With `CC(C)C(=O)OCc1c(F)c(F)c(COC(=O)C(c2cnc(C(C)(C)C)nc2)C(C)(C)C)c(F)c1F` (racemic) [Compound 173, 4-[(2-methylpropionyl)oxymethyl]-2,3,5,6-tetrafluorobenzyl (RS)-2-[2-(1,1-dimethylethyl)pyrimidin-5-yl]-3,3-dimethylbutanoate] the mortality at 500 ppm [1] was 80 to 100%, the mortality at 500 ppm [2] was < 50% and the mortality at 500 ppm (Myzus persicae (aphids)) was 80 to 100%. The mortality at 500 ppm [3] was 80 to 100%, the pest or weed control at 500 ppm [4] was < 50% and the mortality at 500 ppm [5] was < 50%. For the same compound, the mortality at 500 ppm [6] was < 50%, the mortality at 500 ppm [7] was 80 to 100% and the mortality at 500 ppm [8] was 80 to 100%. For the same compound, the mortality at 500 ppm [9] was < 50%.
`CN(C)c1ncc(C(C(=O)OCc2ccc(F)c(Oc3ccccc3)c2)C(C)(C)C)cn1` (racemic) [Compound 200, 4-fluoro-3-phenoxybenzyl (RS)-2-[2-(N,N-dimethylamino)pyrimidin-5-yl]-3,3-dimethylbutanoate] was tested, and the mortality at 500 ppm [1] was 80 to 100%, the mortality at 500 ppm [2] was < 50% and the mortality at 500 ppm (Myzus persicae (aphids)) was 80 to 100%. The mortality at 500 ppm [3] was 80 to 100%, the pest or weed control at 500 ppm [4] was 80 to 100% and the mortality at 500 ppm [5] was < 50%. The mortality at 500 ppm [6] was < 50%, the mortality at 500 ppm [7] was 80 to 100% and the mortality at 500 ppm [8] was 80 to 100%. The mortality at 500 ppm [9] was < 50%.
In the case of `CC(C)(C)c1ncc(C(C(=O)OCc2c(F)c(F)c(CO)c(F)c2F)C(C)(C)C)cn1` (racemic) [Compound 164, 4-(hydroxymethyl)-2,3,5,6-tetrafluorobenzyl (RS)-2-[2-(1,1-dimethylethyl)pyrimidin-5-yl]-3,3-dimethylbutanoate], the mortality at 500 ppm [1] was 80 to 100%, the mortality at 500 ppm [2] was < 50% and the mortality at 500 ppm (Myzus persicae (aphids)) was 50 to 79%. The mortality at 500 ppm [3] was < 50%, the pest or weed control at 500 ppm [4] was 80 to 100% and the mortality at 500 ppm [5] was < 50%. The mortality at 500 ppm [6] was < 50%, the mortality at 500 ppm [7] was 50 to 79% and the mortality at 500 ppm [8] was 80 to 100%. The mortality at 500 ppm [9] was < 50%.
`CC(C)OCc1c(F)c(F)c(COC(=O)C(c2cnc(C(C)(C)C)nc2)C(C)(C)C)c(F)c1F` (racemic) [Compound 189, 2,3,5,6-tetrafluoro-4-[(1-methyl)ethoxy]methylbenzyl (RS)-2-[2-(1,1-dimethylethyl)-pyrimidin-5-yl]-3,3dimethylbutanoate] was tested, and the mortality at 500 ppm [1] was 80 to 100%, the mortality at 500 ppm [2] was < 50% and the mortality at 500 ppm (Myzus persicae (aphids)) was 80 to 100%. For the same compound, the mortality at 500 ppm [3] was 80 to 100%, the pest or weed control at 500 ppm [4] was 50 to 79% and the mortality at 500 ppm [5] was < 50%. The mortality at 500 ppm [6] was < 50%, the mortality at 500 ppm [7] was < 50% and the mortality at 500 ppm [8] was 80 to 100%. The mortality at 500 ppm [9] was < 50%.
With `CC(C)(C)c1ncc(C(C(=O)OCc2cccc(Oc3ccc(Cl)cc3)c2)C(C)(C)C)cn1` (racemic) [Compound 180, 3-(4-chlorophenoxy)benzyl (RS)-2-[2-(1,1-dimethylethyl)pyrimidin-5-yl]-3,3-dimethylbutanoate] the mortality at 500 ppm [1] was 80 to 100%, the mortality at 500 ppm [2] was < 50% and the mortality at 500 ppm (Myzus persicae (aphids)) was 80 to 100%. For the same compound, the mortality at 500 ppm [3] was 80 to 100%, the pest or weed control at 500 ppm [4] was 80 to 100% and the mortality at 500 ppm [5] was 80 to 100%. The mortality at 500 ppm [6] was < 50%, the mortality at 500 ppm [7] was 80 to 100% and the mortality at 500 ppm [8] was 80 to 100%. The mortality at 500 ppm [9] was < 50%.
Compound `CC(C)(C)C(C(=O)OCc1ccc(F)c(Oc2ccccc2)c1)c1cnc(C2CC2)nc1` (racemic) [Compound 201, 4-fluoro-3-phenoxybenzyl (RS)-2-(2-cyclopropylpyrimidin-5-yl)-3,3-dimethylbutanoate] has a mortality at 500 ppm [1] of 80 to 100%, a mortality at 500 ppm [2] of 50 to 79% and a mortality at 500 ppm (Myzus persicae (aphids)) of 80 to 100%. The mortality at 500 ppm [3] was 80 to 100%, the pest or weed control at 500 ppm [4] was 80 to 100% and the mortality at 500 ppm [5] was 80 to 100%. For the same compound, the mortality at 500 ppm [6] was 50 to 79%, the mortality at 500 ppm [7] was 80 to 100% and the mortality at 500 ppm [8] was 80 to 100%. It also gave a mortality at 500 ppm [9] of 80 to 100%.
In the case of `CC(C)(C)c1ncc(C(C(=O)OCc2c(F)c(F)c(CN3CCCCC3)c(F)c2F)C(C)(C)C)cn1` (racemic) [Compound 177, 4-[(piperidin-1-yl)methyl]-2,3,5,6-tetrafluorobenzyl (RS)-2-(2-(1,1-dimethylethyl)pyrimidin-5-yl)-3,3-dimethylbutanoate], the mortality at 500 ppm [1] was 80 to 100%, the mortality at 500 ppm [2] was < 50% and the mortality at 500 ppm (Myzus persicae (aphids)) was 80 to 100%. The mortality at 500 ppm [3] was 80 to 100%, the pest or weed control at 500 ppm [4] was 80 to 100% and the mortality at 500 ppm [5] was < 50%. For the same compound, the mortality at 500 ppm [6] was < 50%, the mortality at 500 ppm [7] was < 50% and the mortality at 500 ppm [8] was 80 to 100%. The mortality at 500 ppm [9] was < 50%.
In the case of `CC(C)(C)c1ncc(C(C(=O)SCc2c(F)c(F)c(CO)c(F)c2F)C(C)(C)C)cn1` (racemic) [Compound 196], the mortality at 500 ppm [1] was < 50%, the mortality at 500 ppm [2] was < 50% and the mortality at 500 ppm (Myzus persicae (aphids)) was < 50%. The mortality at 500 ppm [3] was < 50%, the pest or weed control at 500 ppm [4] was < 50% and the mortality at 500 ppm [5] was < 50%. The mortality at 500 ppm [6] was < 50%, the mortality at 500 ppm [7] was < 50% and the mortality at 500 ppm [8] was 80 to 100%. For the same compound, the mortality at 500 ppm [9] was < 50%.
`C[C@@H](OC(=O)[C@@H](c1cnc(N(C)C)nc1)C(C)(C)C)c1cccc(Oc2ccccc2)n1` (racemic) [Compound 198, (RS)-1-(6-phenoxypyrid-2-yl)ethyl (RS)-2-[2-(N,N-dimethylamino)pyrimidin-5-yl]-3,3-dimethylbutanoate] was tested, and the mortality at 500 ppm [1] was 80 to 100%, the mortality at 500 ppm [2] was < 50% and the mortality at 500 ppm (Myzus persicae (aphids)) was 80 to 100%. The mortality at 500 ppm [3] was 80 to 100%, the pest or weed control at 500 ppm [4] was 80 to 100% and the mortality at 500 ppm [5] was < 50%. For the same compound, the mortality at 500 ppm [6] was 80 to 100%, the mortality at 500 ppm [7] was 80 to 100% and the mortality at 500 ppm [8] was 80 to 100%. For the same compound, the mortality at 500 ppm [9] was 80 to 100%.
In the case of `COCc1c(F)c(F)c(COC(=O)C(c2cnc(C3(C)CCCCC3)nc2)C(C)(C)C)c(F)c1F` (racemic) [Compound 207, 2,3,5,6-tetrafluoro-4-(methoxymethyl)benzyl (RS)-2-[2-(1-methylcyclohexyl)pyrimidin-5-yl]-3,3-dimethylbutanoate], the mortality at 500 ppm [1] was 80 to 100%, the mortality at 500 ppm [2] was < 50% and the mortality at 500 ppm (Myzus persicae (aphids)) was 80 to 100%. For the same compound, the mortality at 500 ppm [3] was 80 to 100%, the pest or weed control at 500 ppm [4] was 80 to 100% and the mortality at 500 ppm [5] was < 50%. The mortality at 500 ppm [6] was < 50%, the mortality at 500 ppm [7] was < 50% and the mortality at 500 ppm [8] was < 50%. For the same compound, the mortality at 500 ppm [9] was < 50%.
In the case of `CCOCc1c(F)c(F)c(COC(=O)C(c2cnc(C(C)(C)C)nc2)C(C)(C)C)c(OCC)c1F` (racemic) [Compound 188, 2,3,5-trifluoro-6-ethoxy-4-(ethoxymethyl)benzyl (RS)-2-[2-(1,1-dimethylethyl)pyrimidin-5-yl]-3,3-dimethylbutanoate], the mortality at 500 ppm [1] was 80 to 100%, the mortality at 500 ppm [2] was < 50% and the mortality at 500 ppm (Myzus persicae (aphids)) was 80 to 100%. For the same compound, the mortality at 500 ppm [3] was 50 to 79%, the pest or weed control at 500 ppm [4] was < 50% and the mortality at 500 ppm [5] was < 50%. For the same compound, the mortality at 500 ppm [6] was < 50%, the mortality at 500 ppm [7] was 50 to 79% and the mortality at 500 ppm [8] was 80 to 100%. The mortality at 500 ppm [9] was < 50%.
